ChEMBL document CHEMBL4196234, “Deciphering Binding Interactions of IL-23R with HDX-MS: Mapping Protein and Macrocyclic Dodecapeptide Ligands” (ACS Med Chem Lett, 2018)

What was measured:
[1] = molecular target: T1, Interleukin-23 receptor (Homo sapiens, UniProt Q5VWK5); assay: Binding affinity to recombinant human flag/His-tagged IL-23R (1 to 353 residues) expressed in HEK293F cells assessed as disruption of biotinylated IL-23 binding to receptor preincubated for 1 hr followed by biotinylated IL-23 addition measured after over night incubation by AlphaLISA assay; format: cell-based
T1 sequence (Q5VWK5 whole entry): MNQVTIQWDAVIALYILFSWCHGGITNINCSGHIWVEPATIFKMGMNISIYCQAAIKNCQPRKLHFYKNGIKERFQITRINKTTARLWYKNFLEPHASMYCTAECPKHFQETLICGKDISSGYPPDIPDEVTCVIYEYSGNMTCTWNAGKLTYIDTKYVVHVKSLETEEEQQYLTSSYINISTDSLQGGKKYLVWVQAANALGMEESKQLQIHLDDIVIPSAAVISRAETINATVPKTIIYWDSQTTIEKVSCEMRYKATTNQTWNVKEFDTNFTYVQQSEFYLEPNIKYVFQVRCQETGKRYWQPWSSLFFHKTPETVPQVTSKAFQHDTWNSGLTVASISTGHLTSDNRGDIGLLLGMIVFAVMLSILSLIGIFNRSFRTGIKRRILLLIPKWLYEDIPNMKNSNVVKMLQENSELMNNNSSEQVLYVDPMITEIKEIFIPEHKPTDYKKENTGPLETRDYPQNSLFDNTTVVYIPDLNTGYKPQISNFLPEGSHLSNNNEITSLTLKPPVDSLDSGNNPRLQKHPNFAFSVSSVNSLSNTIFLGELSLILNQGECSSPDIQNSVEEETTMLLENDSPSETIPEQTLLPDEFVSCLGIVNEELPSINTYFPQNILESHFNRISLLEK

[2] = molecular target: T1, Interleukin-23 receptor; assay: Binding affinity to recombinant human flag/His-tagged IL-23R (1 to 353 residues) expressed in HEK293F cells measured over 90 secs by surface plasmon resonance assay
[3] = molecular target: T1, Interleukin-23 receptor; assay: Binding affinity to recombinant human flag/His-tagged IL-23R (1 to 353 residues) expressed in HEK293F cells assessed as dissociation rate constant measured over 90 secs by surface plasmon resonance assay
[4] = molecular target: T1, Interleukin-23 receptor; assay: Binding affinity to recombinant human flag/His-tagged IL-23R (1 to 353 residues) expressed in HEK293F cells assessed as disruption of biotinylated IL-23 binding to receptor preincubated for 1 hr followed by biotinylated IL-23 addition measured after 1 hr by TR-FRET assay; format: cell-based
[5] = molecular target: T2, Interleukin-23 receptor (Homo sapiens) (UniProt Q5VWK5); assay: Binding affinity to recombinant human flag/His-tagged IL-23R (1 to 353 residues) expressed in HEK293F cells assessed as association rate constant measured over 90 secs by surface plasmon resonance assay
T2 sequence (whole entry): T1 sequence (Q5VWK5 whole entry)

IC50 [1]: 2.7 nM
Kd [2]: 1.81 to 2 nM
Kd [3]: 2.74 ×10⁻² (1/s)
IC50 [4]: 5.1 nM
Ka [5]: 1.51 ×10⁷ (1/Ms)
SMILES: CC(=O)N[C@H]1CCSC[C@@H](C(=O)N[C@@H](Cc2ccc(OCCN)cc2)C(=O)N[C@@H](Cc2c[nH]c3ccccc23)C(=O)N[C@@](C)(CCCCN)C(=O)N[C@@H](CCC(=O)O)C(=O)N[C@@H](CC(N)=O)C(=O)NCC(N)=O)NC(=O)[C@H](CCC(N)=O)NC(=O)[C@H](Cc2c[nH]c3ccccc23)NC(=O)[C@H]([C@@H](C)O)NC(=O)[C@H](CCC(N)=O)NC1=O
